For one experiment, the target named is T1, JNK3 (Homo sapiens, UniProt P53779).
T1 construct: purchased Reaction Biology Corp
The experiment is described as follows: HotSpot Kinase Assay (Reaction Biology Corp.), anti-JNK3 activity. The class given is biochemical. The following applies: HotSpot radiometric assay, 33P-ATP. An outline of the steps: (§1)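 Radiometric HotSpot kinase assay in 20 mM HEPES pH 7.5 with 10 mM MgCl2, 1 mM EGTA, 0.02% Brij 35, 0.02 mg/mL BSA, 0.1 mM Na3VO4, 2 mM DTT and 1% DMSO. Cofactors were added per kinase, with the same format for all three kinases.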

The target in a further experiment is T2, JNK1 (Homo sapiens, UniProt P45983).
T2 construct: purchased Reaction Biology Corp
The experiment is described as follows: HotSpot Kinase Assay, JNK1. It counts as biochemical. The settings on record: HotSpot radiometric assay, 33P-ATP. An outline of the steps:
as §1

In another experiment the target is T3, p38a (Homo sapiens, UniProt Q16539).
T3 construct: purchased Reaction Biology Corp
The experiment is described as follows: HotSpot Kinase Assay, P38a. The class given is biochemical. The settings on record: HotSpot radiometric assay, 33P-ATP. An outline of the steps: as §1

For another experiment, the target named is HGK (Homo sapiens, UniProt O95819). The experiment is described as follows: Enzymatic kinase assay, HGK. The class given is biochemical. On the procedure: [Worded in the source for another target; this target is reported under the same test.] (§2) The anti-JNK3 activity of compounds prepared as in the previous examples was evaluated using a Reaction Biology Corp. HotSpot Kinase Assay. Base reaction buffer was 20 mM HEPES (4-(2-hydroxyethyl)-1-piperazineethanesulfonic acid) at pH 7.5 with 10 mM MgCl2, 1 mM EGTA (ethylene glycol-bis(β-aminoethyl ether)-N,N,N′,N′-tetracetic acid), 0.02% Brij™ 35, 0.02 mg/mL BSA (bovine serum albumin), 0.1 mM Na3VO4, 2 mM DTT (dithiothreitol), and 1% DMSO. Required cofactors were added individually to each kinase reaction.
(§3) Kinase activity was evaluated as follows: • (1) Substrate was dissolved in freshly prepared reaction buffer • (2) Any required cofactors were dissolved in the substrate solution • (3) Kinase was added to the substrate solution followed by gentle mixing • (4) Compounds to be tested dissolved in 100% DMSO were added to the kinase reaction mixture using an Echo550 acoustic liquid handler (Labcyte, San Jose, CA) and incubated for 20 minutes at room temperature • (5) ^33P-ATP was added to the reaction mixture to initiate the kinase reaction • (6) The reaction mixture was incubated for 2 hours at room temperature • (7) Kinase activity was detected by spotting the kinase reaction on Whatman P81 paper, exposing and developing the images using a phosphorimager, and quantifying counts to determine kinase activity

The target of a further experiment is MINK1 (Homo sapiens, UniProt Q8N4C8). The experiment is described as follows: Enzymatic kinase assay, MINK1. It counts as biochemical.
Another experiment addresses TNIK (Homo sapiens, UniProt Q9UKE5). The experiment is described as follows: Enzymatic kinase assay, TNIK. The class given is biochemical. On the procedure:
[Worded in the source for another target; this target is reported under the same test.] as §2, §3

For experiment [1], the system named is c-jun phosphorylation in SH-SY5Y human neuroblastoma cell line. The experiment is described as follows: In Cell Western Assay, p-c-jun after TNFa. The class given is cell-based. The settings on record: SH-SY5Y cells, 25 ng/ml TNFa 1 hour, read-out: Phosphoryl. in SH-SY5Y. On the procedure: SH-SY5Y human neuroblastoma cell line was utilized for the assay. […] Next day, cells were starved of serum for 2 hours by media replacement with serum free DMEM:F12. Cells were then pretreated with inhibitors in DMEM:F12 for 30 min, which was followed by the addition of 25 ng/ml of TNFa for 1 hour. At the end of incubation, cells were fixed with 3% paraformaldehyde for 20 min at room temperature. Following three washes with 0.1 M phosphate buffer (pH 7.0) with shaking during washes, cells were treated with Licor blocking buffer (1:1 dilution in PBS with 0.3% Triton X-100) for 1 hour on a shaker. […] Next day, cells were washed with PBS containing 0.3% Triton X-100 for 5 min each three times with shaking. […] Following three 5 min washes, cells were incubated for nuclei staining with Alexa 680 succinidimyl ester (Thermofisher cat #, A20008) at 1/40,000 dilution for 15 min with shaking and subsequent three 5 min washes. P-c-jun and nuclei signals were detected using Odyssey LiCor Infrared scanner. The p-c-jun signal of each well was normalized to the cell number using nuclei signal.

The next experiment addresses Abl-1 (Homo sapiens, UniProt P00519). The experiment is described as follows: Enzymatic kinase assay, Abl-1. It counts as biochemical. On the procedure: [Worded in the source for another target; this target is reported under the same test.] as §2, §3
For another experiment, the target named is DDR1 (Homo sapiens, UniProt Q08345). The experiment is described as follows: Enzymatic kinase assay, DDR1. It counts as biochemical. On the procedure: [Worded in the source for another target; this target is reported under the same test.] as §2, §3

A value given as a limit tells only on which side of the number the result lay.

Abl-1, sequence (P00519 whole entry): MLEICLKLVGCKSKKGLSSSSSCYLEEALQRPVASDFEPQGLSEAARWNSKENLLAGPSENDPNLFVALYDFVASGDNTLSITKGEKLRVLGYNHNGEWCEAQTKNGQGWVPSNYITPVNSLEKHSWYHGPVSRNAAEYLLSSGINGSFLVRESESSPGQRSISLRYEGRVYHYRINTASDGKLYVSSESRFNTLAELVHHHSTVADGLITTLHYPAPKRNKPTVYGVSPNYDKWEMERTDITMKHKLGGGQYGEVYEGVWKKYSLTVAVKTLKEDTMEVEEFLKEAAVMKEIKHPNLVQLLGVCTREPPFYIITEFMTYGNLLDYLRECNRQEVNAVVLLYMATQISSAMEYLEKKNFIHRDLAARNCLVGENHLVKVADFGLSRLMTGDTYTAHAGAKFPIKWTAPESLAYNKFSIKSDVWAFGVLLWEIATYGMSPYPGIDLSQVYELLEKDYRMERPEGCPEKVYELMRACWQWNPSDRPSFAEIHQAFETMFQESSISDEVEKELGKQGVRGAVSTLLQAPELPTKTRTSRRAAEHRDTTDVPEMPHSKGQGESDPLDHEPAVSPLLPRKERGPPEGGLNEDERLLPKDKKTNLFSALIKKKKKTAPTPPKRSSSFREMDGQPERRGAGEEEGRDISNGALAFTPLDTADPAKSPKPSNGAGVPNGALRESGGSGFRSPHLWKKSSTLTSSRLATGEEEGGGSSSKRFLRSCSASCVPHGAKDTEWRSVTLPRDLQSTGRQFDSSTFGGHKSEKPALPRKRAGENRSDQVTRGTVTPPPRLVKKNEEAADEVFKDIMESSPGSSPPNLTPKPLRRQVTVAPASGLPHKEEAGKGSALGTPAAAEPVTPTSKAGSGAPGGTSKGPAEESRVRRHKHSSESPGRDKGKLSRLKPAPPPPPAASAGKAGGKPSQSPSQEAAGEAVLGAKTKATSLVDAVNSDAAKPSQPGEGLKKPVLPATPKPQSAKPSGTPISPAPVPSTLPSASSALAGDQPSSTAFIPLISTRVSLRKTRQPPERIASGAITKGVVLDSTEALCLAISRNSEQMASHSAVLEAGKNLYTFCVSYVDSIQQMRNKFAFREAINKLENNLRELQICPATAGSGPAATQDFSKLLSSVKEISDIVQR
HGK, sequence (O95819 whole entry): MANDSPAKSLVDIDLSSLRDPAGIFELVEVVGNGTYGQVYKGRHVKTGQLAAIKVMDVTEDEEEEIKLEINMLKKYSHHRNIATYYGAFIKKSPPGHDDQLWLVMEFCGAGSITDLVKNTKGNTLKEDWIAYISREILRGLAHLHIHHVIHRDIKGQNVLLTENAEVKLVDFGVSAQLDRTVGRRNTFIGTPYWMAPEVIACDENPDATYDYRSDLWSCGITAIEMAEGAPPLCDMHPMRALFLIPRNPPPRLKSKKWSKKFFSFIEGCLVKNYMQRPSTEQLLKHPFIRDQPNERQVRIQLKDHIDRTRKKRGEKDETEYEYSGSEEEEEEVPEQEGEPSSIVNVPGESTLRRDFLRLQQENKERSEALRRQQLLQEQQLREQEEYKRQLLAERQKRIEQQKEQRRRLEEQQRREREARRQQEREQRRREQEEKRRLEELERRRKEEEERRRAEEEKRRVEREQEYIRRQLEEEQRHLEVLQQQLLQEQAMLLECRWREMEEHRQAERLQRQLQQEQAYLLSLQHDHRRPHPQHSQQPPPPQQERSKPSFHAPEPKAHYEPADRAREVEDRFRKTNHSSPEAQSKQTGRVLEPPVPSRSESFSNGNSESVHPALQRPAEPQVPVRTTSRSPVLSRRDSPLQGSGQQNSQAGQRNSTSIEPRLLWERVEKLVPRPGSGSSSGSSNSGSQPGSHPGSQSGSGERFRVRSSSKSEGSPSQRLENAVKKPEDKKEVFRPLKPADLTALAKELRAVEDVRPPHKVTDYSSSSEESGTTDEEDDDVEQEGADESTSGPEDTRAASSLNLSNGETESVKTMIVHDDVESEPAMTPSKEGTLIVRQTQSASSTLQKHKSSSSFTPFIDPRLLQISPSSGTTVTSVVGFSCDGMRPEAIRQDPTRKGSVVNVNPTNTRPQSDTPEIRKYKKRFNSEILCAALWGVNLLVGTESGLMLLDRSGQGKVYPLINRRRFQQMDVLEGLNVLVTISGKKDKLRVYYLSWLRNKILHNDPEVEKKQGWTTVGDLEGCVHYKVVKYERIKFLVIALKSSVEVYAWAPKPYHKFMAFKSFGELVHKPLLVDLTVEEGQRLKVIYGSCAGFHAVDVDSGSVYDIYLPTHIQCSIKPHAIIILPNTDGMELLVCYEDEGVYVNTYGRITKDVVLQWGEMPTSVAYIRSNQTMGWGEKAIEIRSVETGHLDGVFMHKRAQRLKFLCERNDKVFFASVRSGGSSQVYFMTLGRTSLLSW
MINK1, sequence (Q8N4C8 whole entry): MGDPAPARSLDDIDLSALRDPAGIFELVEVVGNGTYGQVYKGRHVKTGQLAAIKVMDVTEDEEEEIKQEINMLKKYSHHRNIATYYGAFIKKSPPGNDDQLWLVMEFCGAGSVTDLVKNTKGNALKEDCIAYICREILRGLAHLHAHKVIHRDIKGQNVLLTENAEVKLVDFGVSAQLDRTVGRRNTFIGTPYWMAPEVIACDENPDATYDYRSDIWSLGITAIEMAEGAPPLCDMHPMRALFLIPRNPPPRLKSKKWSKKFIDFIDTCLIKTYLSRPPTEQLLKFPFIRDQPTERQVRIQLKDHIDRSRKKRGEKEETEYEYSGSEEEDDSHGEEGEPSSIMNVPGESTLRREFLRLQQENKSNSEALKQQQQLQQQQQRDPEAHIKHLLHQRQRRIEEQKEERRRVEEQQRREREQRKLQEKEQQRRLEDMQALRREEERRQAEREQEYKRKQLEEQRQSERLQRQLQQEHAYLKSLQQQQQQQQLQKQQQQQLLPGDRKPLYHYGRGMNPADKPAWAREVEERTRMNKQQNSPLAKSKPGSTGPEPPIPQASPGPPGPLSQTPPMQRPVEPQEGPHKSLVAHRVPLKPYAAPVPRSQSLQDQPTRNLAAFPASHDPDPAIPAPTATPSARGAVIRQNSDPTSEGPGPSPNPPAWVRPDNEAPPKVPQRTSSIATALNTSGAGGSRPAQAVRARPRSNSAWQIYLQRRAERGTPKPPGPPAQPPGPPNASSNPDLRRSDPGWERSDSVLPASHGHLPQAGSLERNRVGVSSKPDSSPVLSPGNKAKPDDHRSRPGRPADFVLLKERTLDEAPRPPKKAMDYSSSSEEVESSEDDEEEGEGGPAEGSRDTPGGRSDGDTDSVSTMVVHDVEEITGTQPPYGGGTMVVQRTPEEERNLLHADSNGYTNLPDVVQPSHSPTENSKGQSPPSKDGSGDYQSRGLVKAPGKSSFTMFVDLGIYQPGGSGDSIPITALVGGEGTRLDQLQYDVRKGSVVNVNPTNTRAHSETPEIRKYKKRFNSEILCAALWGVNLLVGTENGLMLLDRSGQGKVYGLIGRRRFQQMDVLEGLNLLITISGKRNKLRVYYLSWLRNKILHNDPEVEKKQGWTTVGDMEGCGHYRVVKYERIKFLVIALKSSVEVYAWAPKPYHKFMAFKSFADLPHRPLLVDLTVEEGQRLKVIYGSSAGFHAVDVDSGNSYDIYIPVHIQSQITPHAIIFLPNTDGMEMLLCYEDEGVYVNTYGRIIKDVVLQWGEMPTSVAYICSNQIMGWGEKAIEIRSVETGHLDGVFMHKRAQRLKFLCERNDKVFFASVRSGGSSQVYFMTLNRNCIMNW
T3 sequence (Q16539 whole entry): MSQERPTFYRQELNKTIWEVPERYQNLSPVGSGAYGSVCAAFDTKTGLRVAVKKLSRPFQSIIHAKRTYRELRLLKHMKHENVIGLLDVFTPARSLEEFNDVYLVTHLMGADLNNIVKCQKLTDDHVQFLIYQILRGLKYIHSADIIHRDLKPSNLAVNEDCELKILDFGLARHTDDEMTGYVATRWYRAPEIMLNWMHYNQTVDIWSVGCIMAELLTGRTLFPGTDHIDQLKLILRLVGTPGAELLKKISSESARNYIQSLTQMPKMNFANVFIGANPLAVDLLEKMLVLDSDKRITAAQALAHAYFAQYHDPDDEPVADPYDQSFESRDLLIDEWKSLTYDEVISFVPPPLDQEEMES
DDR1, sequence (Q08345 19-913): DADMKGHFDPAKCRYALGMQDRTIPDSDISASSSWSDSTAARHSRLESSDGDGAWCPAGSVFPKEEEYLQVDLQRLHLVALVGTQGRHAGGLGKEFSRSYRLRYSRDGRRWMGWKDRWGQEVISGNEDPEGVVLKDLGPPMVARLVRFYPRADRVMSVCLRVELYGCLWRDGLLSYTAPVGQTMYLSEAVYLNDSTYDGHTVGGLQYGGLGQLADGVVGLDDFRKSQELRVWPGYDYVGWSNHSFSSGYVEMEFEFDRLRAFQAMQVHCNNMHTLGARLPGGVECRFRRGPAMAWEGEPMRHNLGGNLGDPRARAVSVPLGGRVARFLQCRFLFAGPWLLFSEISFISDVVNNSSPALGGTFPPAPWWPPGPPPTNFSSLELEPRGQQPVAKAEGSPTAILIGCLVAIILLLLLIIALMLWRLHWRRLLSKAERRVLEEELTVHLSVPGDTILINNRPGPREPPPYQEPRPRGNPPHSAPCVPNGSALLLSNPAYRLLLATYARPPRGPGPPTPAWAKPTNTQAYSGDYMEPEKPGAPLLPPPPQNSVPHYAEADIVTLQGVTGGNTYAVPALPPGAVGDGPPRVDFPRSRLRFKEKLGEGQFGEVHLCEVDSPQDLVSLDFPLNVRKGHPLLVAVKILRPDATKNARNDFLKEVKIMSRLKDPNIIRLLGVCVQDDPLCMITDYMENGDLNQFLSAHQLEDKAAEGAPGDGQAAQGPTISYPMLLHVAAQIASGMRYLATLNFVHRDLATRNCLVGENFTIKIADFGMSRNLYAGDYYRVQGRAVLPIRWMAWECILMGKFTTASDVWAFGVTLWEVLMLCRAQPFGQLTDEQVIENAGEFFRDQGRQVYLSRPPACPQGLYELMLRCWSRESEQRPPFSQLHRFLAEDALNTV

In the case of `CNC(=O)c1cc(-n2ncc3cc(Nc4cccc(C)c4Cl)ncc32)cs1` [Compound 25, 4-(5-((2-chloro-3-methylphenyl)amino)-1H-pyrazolo[3,4-c]pyridin-1-yl)-N-methylthiophene-2-carboxamide], the IC50 on JNK3 was less than 200 nM; against JNK1, 200 to 1000 nM; at p38a, 200 to 1000 nM; against HGK, less than 200 nM; on MINK1, less than 200 nM; against TNIK, less than 200 nM.

For the compound `[2H]C([2H])([2H])N1CC[C@H](NC(=O)c2cc(-n3ncc4cc(Nc5ccccc5Cl)c(F)cc43)cs2)C1` [Compound 36, (S)-4-(5-((2-chlorophenyl)amino)-6-fluoro-1H-indazol-1-yl)-N-(1-(methyl-d3)pyrrolidin-3-yl)thiophene-2-carboxamide], the IC50 against JNK3 was less than 200 nM; against JNK1 it was 200 to 1000 nM; against p38a, 200 to 1000 nM; in [1], less than 200 nM.

`CNC(=O)c1cc(-n2ncc3nc(Nc4ccccc4Cl)ccc32)cs1` [Compound 50, 4-(5-((2-chlorophenyl)amino)-1H-pyrazolo[4,3-b]pyridin-1-yl)-N-methylthiophene-2-carboxamide]: the IC50 against JNK3 is less than 200 nM; at JNK1, greater than 1000 nM; against p38a, 200 to 1000 nM; in experiment [1], less than 200 nM.

As to `CN1CCN=C1NC(=O)c1cc(-n2ncc3nc(Nc4ccccc4Cl)ccc32)cs1` [Compound 58, 4-(5-((2-chlorophenyl)amino)-1H-pyrazolo[4,3-b]pyridin-1-yl)-N-(1-methyl-4,5-dihydro-1H-imidazol-2-yl)thiophene-2-carboxamide], the IC50 is less than 200 nM on JNK3; greater than 1000 nM against JNK1; greater than 1000 nM against p38a; greater than 1000 nM at Abl-1; less than 200 nM against DDR1; less than 200 nM on HGK. Also, the IC50 on MINK1 and on TNIK was less than 200 nM each time.

For the compound `CNC(=O)c1cc(-n2ncc3cc(Nc4c(F)cccc4Cl)c(OC)cc32)cs1` [Compound 91, 4-(5-((2-chloro-6-fluorophenyl)amino)-6-methoxy-1H-indazol-1-yl)-N-methylthiophene-2-carboxamide], the IC50 is less than 200 nM on JNK3; greater than 1000 nM against JNK1; 200 to 1000 nM against p38a; 200 to 1000 nM at Abl-1; less than 200 nM against DDR1; less than 200 nM against HGK. Besides, the values for the IC50 against MINK1 and at TNIK were 200 to 1000 nM and less than 200 nM, respectively.

Regarding `CNC(=O)c1cc(-n2ncc3cc(Nc4c(F)cccc4OC)ccc32)cs1` [Compound 93, 4-(5-((2-fluoro-6-methoxyphenyl)amino)-1H-indazol-1-yl)-N-methylthiophene-2-carboxamide], the IC50 was less than 200 nM on JNK3, greater than 1000 nM against JNK1, 200 to 1000 nM against p38a and 200 to 1000 nM at DDR1.

As for `CNC(=O)c1cc(-n2ncc3cc(Nc4c(Cl)cccc4OC)ncc32)cs1` [Compound 108, 4-(5-((2-chloro-6-methoxyphenyl)amino)-1H-pyrazolo[3,4-c]pyridin-1-yl)-N-methylthiophene-2-carboxamide], the IC50 on JNK3 was less than 200 nM; at JNK1, greater than 1000 nM; against p38a, 200 to 1000 nM; against Abl-1, greater than 1000 nM; at DDR1 it was 200 to 1000 nM; at HGK, less than 200 nM. Also, the IC50 on MINK1 and against TNIK was less than 200 nM throughout.

As for `COc1cccc(Cl)c1Nc1cc2cnn(-c3csc(C(=O)NC4COC4)c3)c2nc1C` [Compound 110, 4-(5-((2-chloro-6-methoxyphenyl)amino)-6-methyl-1H-pyrazolo[3,4-b]pyridin-1-yl)-N-(oxetan-3-yl)thiophene-2-carboxamide], the IC50 at JNK3 was less than 200 nM; on JNK1 it was greater than 1000 nM; against p38a, 200 to 1000 nM; against Abl-1 it was greater than 1000 nM; on DDR1, greater than 1000 nM; on HGK, greater than 1000 nM. The IC50 at MINK1 was greater than 1000 nM; at TNIK it was 200 to 1000 nM.
